Measurements from US5620955A, “Bombesin receptor antagonists and uses thereof” (Peptide Technologies Corporation, priority 1993, dated 1997).
Like-named read-outs stand apart in the source and are kept apart here. Positions of bridges follow the written chain, without caps; N, C: chain ends. Non-standard residues stand in square brackets, D forms with d. Residues, ends and D or L forms follow the SMILES beside them. *: point of attachment. Chlorambucil = O=C(CCCc1ccc(N(CCCl)CCCl)cc1)*; NH(4-Br-phenethyl) = Brc1ccc(CCN*)cc1; X1 = O=C(CCCc1ccc(N(CCO)CCCl)cc1)*; 1Naphthoyl = O=C(c1cccc2ccccc12)*; Bz = O=C(c1ccccc1)*; NHPr = CCCN*

What was measured:
BBN receptor [1] = target: T1, BBN receptor (Homo sapiens, UniProt P30550); assay: Inhibition of [125I]Tyr4-BBN binding to SCLC NCI-H345 membranes; details: for inhibition of BBN binding to SCLC membranes (in words): radiolabelled Tyr4-BBN
T1 construct: endogenous in cells; host or cells: NCI-H345 (human SCLC)
T1 sequence (P30550 whole entry): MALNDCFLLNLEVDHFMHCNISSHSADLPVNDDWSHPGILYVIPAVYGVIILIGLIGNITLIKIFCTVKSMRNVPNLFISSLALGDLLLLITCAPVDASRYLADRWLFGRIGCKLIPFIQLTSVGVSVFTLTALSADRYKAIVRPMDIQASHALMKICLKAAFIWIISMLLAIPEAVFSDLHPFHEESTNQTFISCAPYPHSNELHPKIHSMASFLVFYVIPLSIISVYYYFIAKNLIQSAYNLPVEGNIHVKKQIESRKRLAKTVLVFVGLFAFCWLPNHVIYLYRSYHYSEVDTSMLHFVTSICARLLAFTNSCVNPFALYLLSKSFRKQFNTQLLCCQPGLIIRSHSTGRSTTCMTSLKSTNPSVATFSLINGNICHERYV
Experimental: (§1) Acinar cells from rat pancreas bind BBN and secrete amylase when treated with BBN. The ability of potential antagonists to bind to rat pancreatic acinar cells was examined by determining the ability of the compounds to inhibit the binding of radiolabelled BBN. […] Finally, antagonist activity of the compounds was determined by measuring the ability of compounds to prevent the release of amylase from cells in response to BBN. […] This cell line was also used to evaluate biological activities of potential antagonists derived from the structures of BBN and GRP. The binding of synthetic compounds to cellular membranes prepared from NCI-H345 was determined. The ability of potential antagonists to block the BBN-stimulated increase in cytosolic levels of Ca^++ was determined. Compounds showing inhibition were further tested to determine the effect on growth of two human SCLC cell lines in culture.
Potential antagonists were also evaluated for their ability to inhibit the binding of radiolabelled Tyr^4 -BBN to SCLC membranes and for their effects on BBN signal transduction in SCLC cells.

BBN receptor [2] = target: T1, BBN receptor; assay: Cytosolic Ca++ assay in SCLC cell line NCI-H345; assay type: cell-based; parameters: key: antagonized (A); had no effect (--) on the ability of 10 nM BBN to; details: compound 10 μM; 10 nM BBN elevation of cytosolic Ca++
Experimental: SCLC cell line NCI-H345 was cultured for two days in medium containing 10^-8 M hydrocortisone, 5 μg/ml bovine insulin, 10 μg/ml human transferrin, 10^-8 M β-estradiol and 3×10^-8 M Na2 SeO3. The cells were harvested and washed, resuspended in medium containing 20 mM HEPES, pH 7.4, and loaded with 5 μM Fura 2 AM (Calbiochem) for 30 minutes. The cells were centrifuged at 150×g for 10 minutes to remove extracellular dye and resuspended and placed in a spectrofluorometer cell equipped with stirring and 37° C. heating. The emission was read at 510 nm with 340 excitation (Moody et al., Biochem. Biophys. Res. Commun. 147:189 (1987)). The response of compounds at 5 μM was measured initially as a screen and compared to that of 10 nM BBN. The response of varying concentrations of peptide (nM to μM) in the presence of 10 nM BBN was determined.

NCI-H345 = assay: Clonagenic assay, colony formation of NCI-H345; assay type: cell-based, human; parameters: key to Growth: significantly reduced (R); had no effect (--) on th; details: compound 1 μM; clonal growth of a human tumor cell line
Experimental: The effect of 1 to 1000 nM concentration of peptides on growth of NCI-H345 colonies stimulated by 10 nM BBN was measured in the agarose cloning system (Mahoud et al., Cancer Res. 51:1798 (1991); Staley et al., Peptides 12:145-149 (1991)). […] On the day of the assay, cells were harvested, centrifuged and suspended in the buffer. The agarose cloning system consisted of 3 ml of 0.5% agarose in SIT medium with 5% fetal bovine serum in six well plates. To a top layer, consisting of 3 ml HITES medium in 0.3% agarose, the peptides at two times concentration and 6×10^4 single viable cells, were added. For each peptide concentration, triplicate wells were plated. After two weeks, 1 ml of 0.1% p-iodo-nitrotetrazolium violet was added, and after 16 hours at 37° C., the plates were screened for colony formation; the number of colonies larger than […] in diameter were counted using a Bausch and Lomb Omnicon image analysis system.

BBN receptor [3] = target: T2, BBN receptor (Rattus norvegicus, UniProt P52500); assay: Stimulation of amylase release from rat pancreatic acinar cells by the compound alone (agonist test); assay type: cell-based
T2 sequence (P52500 whole entry): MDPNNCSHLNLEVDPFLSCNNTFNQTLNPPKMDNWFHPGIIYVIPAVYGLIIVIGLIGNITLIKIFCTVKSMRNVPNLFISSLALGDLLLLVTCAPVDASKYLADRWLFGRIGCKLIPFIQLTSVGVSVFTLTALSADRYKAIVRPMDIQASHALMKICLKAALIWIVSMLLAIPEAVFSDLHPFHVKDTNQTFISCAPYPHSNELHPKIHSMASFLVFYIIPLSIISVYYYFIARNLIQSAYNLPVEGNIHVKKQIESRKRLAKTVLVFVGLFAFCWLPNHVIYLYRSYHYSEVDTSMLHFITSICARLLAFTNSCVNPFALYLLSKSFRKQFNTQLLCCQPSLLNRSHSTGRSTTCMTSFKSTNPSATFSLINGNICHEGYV

BBN receptor [4] = target: T2, BBN receptor; assay: Inhibition of bombesin-stimulated amylase release from rat pancreatic acini; assay type: cell-based; details: half-maximal inhibition of bombesin-stimulated amylase release from acini; mean ± s.e.m.
Experimental: as §1
The incubation solution contained 1% albumin and the wash solution contained 0.2% albumin. The solution was equilibrated with 100% O2. Dispersed acini were suspended in 20 ml of solution. Samples of 1 ml were incubated in the presence of various concentrations of compounds in the presence of 1 nM bombesin. After the first incubation the samples were washed 4 times with wash solution at 4° C. The acini were then resuspended in fresh incubation buffer and incubated at 37° C. Amylase release was measured by the Phadebas reagent. Amylase secretion during a given incubation was expressed as the percentage of amylase present in the acini at the beginning of that incubation that was released into the extracellular medium.

BBN receptor [5] = target: T2, BBN receptor; assay: Inhibition of 125I bombesin binding to rat pancreatic acinar cells; details: inhibition of 125I bombesin binding; IC50 divided by radioligand concentration
Experimental: Inhibition of equilibrium binding of ^125 I labeled bombesin to acinar membranes by the compounds was determined. The Kd was determined by dividing IC50 (the concentration of synthetic compound required to inhibit 50% of the specific binding of labelled BBN) by the concentration of radiolabeled peptide.

BBN receptor [6] = target: T2, BBN receptor; assay type: cell-based; details: PTC 821 1 μM
Experimental: (§2) Dispersed acinar cells from rat pancreas were prepared as indicated above.

CCK Receptor = target: T3, CCK Receptor (Rattus norvegicus, UniProt P30551); assay: Specificity test, CCK-stimulated amylase secretion of rat pancreatic acinar cells after wash; details: PTC 821 1 μM
T3 sequence (P30551 1-444): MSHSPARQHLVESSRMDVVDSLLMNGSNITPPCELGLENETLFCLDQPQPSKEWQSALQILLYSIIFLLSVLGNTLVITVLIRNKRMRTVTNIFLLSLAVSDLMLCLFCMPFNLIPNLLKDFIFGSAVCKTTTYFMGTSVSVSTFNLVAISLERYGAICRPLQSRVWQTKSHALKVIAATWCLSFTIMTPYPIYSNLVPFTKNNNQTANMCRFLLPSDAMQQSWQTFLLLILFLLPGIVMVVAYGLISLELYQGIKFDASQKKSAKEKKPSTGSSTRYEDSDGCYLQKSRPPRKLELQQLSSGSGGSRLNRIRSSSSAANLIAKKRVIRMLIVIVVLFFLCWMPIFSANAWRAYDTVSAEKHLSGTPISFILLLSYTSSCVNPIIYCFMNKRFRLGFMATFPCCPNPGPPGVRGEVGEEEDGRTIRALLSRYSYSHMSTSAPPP
Experimental: as §2

[7] = 50% inhibition of specific [125I]Tyr4-BBN binding, NCI-H345, read-out: IC50

Row | SMILES | IC50 (BBN receptor [1]; [7]) [µM] | Ca++ effect (BBN receptor [2]) | EC50 (BBN receptor [3]) [µM] | IC50 (BBN receptor [4]) [µM] | Kd (BBN receptor [5]) [µM] | IC50 (BBN receptor [1]) [µM] | further results
1 | CCCNC(=O)[C@H]1CCC(=O)NCCCC[C@H](NC(C)=O)C(=O)N[C@@H](Cc2c[nH]c3ccccc23)C(=O)N[C@@H](C)C(=O)N[C@@H](C(C)C)C(=O)N[C@H](C)C(=O)N[C@@H](Cc2c[nH]cn2)C(=O)N1 [PCT 812] (Ac-KWAV[dA]H[dE]-NHPr; lactam 1-7) | 4 | A |  |  |  |  | inhibition of BBN binding to SCLC membranes (in words) (BBN receptor [1]): only weak inhibition of BBN binding; Growth (NCI-H345): R
2 | CC(=O)N[C@H]1CCCCNC(=O)[C@H](CC(C)C)NC(=O)[C@H](Cc2c[nH]cn2)NC(=O)[C@H](C)NC(=O)[C@H](C(C)C)NC(=O)[C@H](C)NC(=O)[C@H](Cc2c[nH]c3ccccc23)NC(=O)[C@H](CCC(N)=O)NC(=O)[C@H](CC(N)=O)NC1=O [PTC 803] (Ac-KNQWAVAHL; lactam 1-C) | > 10 | -- | > 3 | > 3 | > 3 |  | 
3 | CC(=O)N[C@@H]1CCCCNC(=O)[C@H](CC(C)C)NC(=O)[C@H](Cc2c[nH]cn2)NC(=O)[C@@H](C)NC(=O)[C@H](C(C)C)NC(=O)[C@H](C)NC(=O)[C@H](Cc2c[nH]c3ccccc23)NC(=O)[C@H](CCC(N)=O)NC(=O)[C@H](CC(N)=O)NC1=O [PTC 804] (Ac-[dK]NQWAV[dA]HL; lactam 1-C) | 6 | -- | > 3 | > 3 | > 3 |  | inhibition of BBN binding to SCLC membranes (in words) (BBN receptor [1]): only weak inhibition of BBN binding
4 | CC(=O)N[C@@H]1CCCCNC(=O)[C@H](CC(C)C)NC(=O)[C@H](Cc2c[nH]cn2)NC(=O)[C@H](C)NC(=O)[C@H](C(C)C)NC(=O)[C@H](C)NC(=O)[C@H](Cc2c[nH]c3ccccc23)NC(=O)[C@H](CCC(N)=O)NC(=O)[C@H](CC(N)=O)NC1=O [PTC 805] (Ac-[dK]NQWAVAHL; lactam 1-C) | > 10 | -- | > 3 | > 3 | > 3 |  | 
5 | CC(=O)N[C@H]1CCCCNC(=O)[C@H](CC(C)C)NC(=O)[C@H](Cc2c[nH]cn2)NC(=O)[C@@H](C)NC(=O)[C@H](C(C)C)NC(=O)[C@H](C)NC(=O)[C@H](Cc2c[nH]c3ccccc23)NC(=O)[C@H](CCC(N)=O)NC(=O)[C@H](CC(N)=O)NC1=O [PTC 806] (Ac-KNQWAV[dA]HL; lactam 1-C) |  |  | > 3 | > 3 | > 3 |  | 
6 | CC(C)C[C@@H]1NC(=O)[C@H](Cc2c[nH]cn2)NC(=O)[C@@H](C)NC(=O)[C@H](C(C)C)NC(=O)[C@H](C)NC(=O)[C@H](Cc2c[nH]c3ccccc23)NC(=O)[C@H](CCC(N)=O)NC(=O)[C@H](CC(N)=O)NC(=O)[C@H](NC(=O)c2ccccc2)CCCCNC1=O [PTC 807] (Bz-[dK]NQWAV[dA]HL; lactam 1-C) |  | -- |  |  |  |  | 
7 | CC(C)C[C@@H]1NC(=O)[C@H](Cc2c[nH]cn2)NC(=O)[C@@H](C)NC(=O)[C@H](C(C)C)NC(=O)[C@H](C)NC(=O)[C@H](Cc2c[nH]c3ccccc23)NC(=O)[C@H](CCC(N)=O)NC(=O)[C@H](CC(N)=O)NC(=O)[C@H](NC(=O)c2cccc3ccccc23)CCCCNC1=O [PTC 808] (1Naphthoyl-[dK]NQWAV[dA]HL; lactam 1-C) |  | -- |  |  |  |  | 
8 | CC(C)C[C@@H]1NC(=O)[C@H](Cc2c[nH]cn2)NC(=O)[C@@H](C)NC(=O)[C@H](C(C)C)NC(=O)[C@H](C)NC(=O)[C@H](Cc2c[nH]c3ccccc23)NC(=O)[C@H](CCC(N)=O)NC(=O)[C@H](CC(N)=O)NC(=O)[C@H](Nc2ccc([N+](=O)[O-])cc2[N+](=O)[O-])CCCCNC1=O [PTC 809] | > 10 | -- | > 3 | > 3 | > 3 |  | 
9 | CCOC(=O)[C@H](CC(C)C)NC(=O)[C@H](Cc1c[nH]cn1)NC(=O)[C@@H](C)NC(=O)[C@@H](NC(=O)[C@H](C)NC(=O)[C@H](Cc1c[nH]c2ccccc12)NC(=O)[C@H](CCC(N)=O)NC(=O)[C@H](CC(N)=O)NC(=O)CCCc1ccc(N(CCO)CCCl)cc1)C(C)C [PTC 815B] (X1-NQWAV[dA]HL-OEt) |  |  |  |  |  | 0.045 | 
10 | CCOC(=O)[C@H](CC(C)C)NC(=O)[C@H](Cc1c[nH]cn1)NC(=O)[C@@H](C)NC(=O)[C@@H](NC(=O)[C@H](C)NC(=O)[C@H](Cc1c[nH]c2ccccc12)NC(=O)[C@H](CCC(N)=O)NC(=O)[C@H](CC(N)=O)NC(=O)CCCc1ccc(N(CCCl)CCCl)cc1)C(C)C [PTC 815] (Chlorambucil-NQWAV[dA]HL-OEt) |  |  | > 3 | 0.0085 ± 0.0005 | 0.0107 ± 0.0034 | 0.035 | 
11 | CC(=O)N[C@@H](Cc1c[nH]cn1)C(=O)N[C@@H](Cc1c[nH]c2ccccc12)C(=O)N[C@@H](C)C(=O)N[C@H](C(=O)N[C@H](C)C(=O)N[C@@H](Cc1c[nH]cn1)C(=O)NCCc1ccc(Br)cc1)C(C)C [PTC 820] (Ac-HWAV[dA]H-{NH(4-Br-phenethyl)}) |  | -- | > 3 | > 3 | > 3 | > 10 | Growth (NCI-H345): --
12 | CCOC(=O)[C@H](CC(C)C)NC(=O)[C@H](Cc1c[nH]cn1)NC(=O)[C@@H](C)NC(=O)[C@@H](NC(=O)[C@H](C)NC(=O)[C@H](Cc1c[nH]c2ccccc12)NC(=O)[C@H](Cc1c[nH]cn1)NC(=O)CCCc1ccc(N(CCCl)CCCl)cc1)C(C)C [PTC 821] (Chlorambucil-HWAV[dA]HL-OEt) |  |  | > 3 | 0.0063 ± 0.0009 | 0.0032 ± 0.0005 | 0.008 | Percent BBN Receptor Activity Recovered (BBN receptor [6]; 1 Min post-wash): 5%; Percent BBN Receptor Activity Recovered (BBN receptor [6]; 30 Min post-wash): 18%; Percent BBN Receptor Activity Recovered (BBN receptor [6]; 60 Min post-wash): 25%; changes in the appearance of the cells indicative of toxicity (BBN receptor [6]; rat pancreatic acinar cells): no changes in the appearance of the cells; Percent CCK Receptor Activity Recovered (CCK Receptor; 1 Min post-wash): 107%; Percent CCK Receptor Activity Recovered (CCK Receptor; 30 Min post-wash): 115%; Percent CCK Receptor Activity Recovered (CCK Receptor; 60 Min post-wash): 89%
